Measured values from ChEMBL document CHEMBL1158973, “The crystal structure and cytotoxicity of goniodiol-7-monoacetate from Goniothalamus amuyon” (1991).
Values after ≈ are worked out from the molar mass of the structure shown. Active and inactive are the calls of the source. The rule behind the calls is not given here.

Tests used:
[1] = system: A549; assay: Cytotoxicity against human A549 cells; format: functional; settings: read-out: ED50 (the source's name)
[2] = system: HCT-8; assay: Cytotoxicity against human HCT8 cells at 4 ug/ml; format: functional, cell-based
[3] = system: TE-671; assay: Cytotoxicity against human TE671 cells; format: functional; settings: read-out: ED50 (the source's name)
[4] = system: KB; assay: Cytotoxicity against human KB cells; format: functional; settings: read-out: ED50 (the source's name)
[5] = system: A549; assay: Cytotoxicity against human A549 cells at 4 ug/ml; format: functional, cell-based
[6] = system: P388; assay: Cytotoxicity against mouse P388 cells; format: functional; settings: read-out: ED50 (the source's name)
[7] = Cytotoxicity against human RPMI cells; format: functional; settings: read-out: ED50 (the source's name)

Compound: O=C1C=CC[C@H]([C@H](O)[C@H](O)c2ccccc2)O1 [GONIODIOL]
- EC50 [1]: 0.12 µg/mL (≈ 0.512 µM)

Compound: CC(=O)O[C@H]([C@H](O)c1ccccc1)[C@H]1CC=CC(=O)O1
- Activity [2]: inactive
- EC50 [3]: < 0.1 µg/mL
- EC50 [4]: < 0.1 µg/mL
- Activity [5]: inactive
- EC50 [6]: < 0.1 µg/mL
- EC50 [7]: < 0.1 µg/mL
